ChEMBL document CHEMBL2321810, “QSAR investigation of NaV1.7 active compounds using the SVM/Signature approach and the Bioclipse Modeling platform” (Bioorg Med Chem Lett, 2013)

Target: Sodium channel protein type 9 subunit alpha (Homo sapiens, UniProt Q15858)
Experiment: cell-based

Sequence of Sodium channel protein type 9 subunit alpha (Q15858 whole entry): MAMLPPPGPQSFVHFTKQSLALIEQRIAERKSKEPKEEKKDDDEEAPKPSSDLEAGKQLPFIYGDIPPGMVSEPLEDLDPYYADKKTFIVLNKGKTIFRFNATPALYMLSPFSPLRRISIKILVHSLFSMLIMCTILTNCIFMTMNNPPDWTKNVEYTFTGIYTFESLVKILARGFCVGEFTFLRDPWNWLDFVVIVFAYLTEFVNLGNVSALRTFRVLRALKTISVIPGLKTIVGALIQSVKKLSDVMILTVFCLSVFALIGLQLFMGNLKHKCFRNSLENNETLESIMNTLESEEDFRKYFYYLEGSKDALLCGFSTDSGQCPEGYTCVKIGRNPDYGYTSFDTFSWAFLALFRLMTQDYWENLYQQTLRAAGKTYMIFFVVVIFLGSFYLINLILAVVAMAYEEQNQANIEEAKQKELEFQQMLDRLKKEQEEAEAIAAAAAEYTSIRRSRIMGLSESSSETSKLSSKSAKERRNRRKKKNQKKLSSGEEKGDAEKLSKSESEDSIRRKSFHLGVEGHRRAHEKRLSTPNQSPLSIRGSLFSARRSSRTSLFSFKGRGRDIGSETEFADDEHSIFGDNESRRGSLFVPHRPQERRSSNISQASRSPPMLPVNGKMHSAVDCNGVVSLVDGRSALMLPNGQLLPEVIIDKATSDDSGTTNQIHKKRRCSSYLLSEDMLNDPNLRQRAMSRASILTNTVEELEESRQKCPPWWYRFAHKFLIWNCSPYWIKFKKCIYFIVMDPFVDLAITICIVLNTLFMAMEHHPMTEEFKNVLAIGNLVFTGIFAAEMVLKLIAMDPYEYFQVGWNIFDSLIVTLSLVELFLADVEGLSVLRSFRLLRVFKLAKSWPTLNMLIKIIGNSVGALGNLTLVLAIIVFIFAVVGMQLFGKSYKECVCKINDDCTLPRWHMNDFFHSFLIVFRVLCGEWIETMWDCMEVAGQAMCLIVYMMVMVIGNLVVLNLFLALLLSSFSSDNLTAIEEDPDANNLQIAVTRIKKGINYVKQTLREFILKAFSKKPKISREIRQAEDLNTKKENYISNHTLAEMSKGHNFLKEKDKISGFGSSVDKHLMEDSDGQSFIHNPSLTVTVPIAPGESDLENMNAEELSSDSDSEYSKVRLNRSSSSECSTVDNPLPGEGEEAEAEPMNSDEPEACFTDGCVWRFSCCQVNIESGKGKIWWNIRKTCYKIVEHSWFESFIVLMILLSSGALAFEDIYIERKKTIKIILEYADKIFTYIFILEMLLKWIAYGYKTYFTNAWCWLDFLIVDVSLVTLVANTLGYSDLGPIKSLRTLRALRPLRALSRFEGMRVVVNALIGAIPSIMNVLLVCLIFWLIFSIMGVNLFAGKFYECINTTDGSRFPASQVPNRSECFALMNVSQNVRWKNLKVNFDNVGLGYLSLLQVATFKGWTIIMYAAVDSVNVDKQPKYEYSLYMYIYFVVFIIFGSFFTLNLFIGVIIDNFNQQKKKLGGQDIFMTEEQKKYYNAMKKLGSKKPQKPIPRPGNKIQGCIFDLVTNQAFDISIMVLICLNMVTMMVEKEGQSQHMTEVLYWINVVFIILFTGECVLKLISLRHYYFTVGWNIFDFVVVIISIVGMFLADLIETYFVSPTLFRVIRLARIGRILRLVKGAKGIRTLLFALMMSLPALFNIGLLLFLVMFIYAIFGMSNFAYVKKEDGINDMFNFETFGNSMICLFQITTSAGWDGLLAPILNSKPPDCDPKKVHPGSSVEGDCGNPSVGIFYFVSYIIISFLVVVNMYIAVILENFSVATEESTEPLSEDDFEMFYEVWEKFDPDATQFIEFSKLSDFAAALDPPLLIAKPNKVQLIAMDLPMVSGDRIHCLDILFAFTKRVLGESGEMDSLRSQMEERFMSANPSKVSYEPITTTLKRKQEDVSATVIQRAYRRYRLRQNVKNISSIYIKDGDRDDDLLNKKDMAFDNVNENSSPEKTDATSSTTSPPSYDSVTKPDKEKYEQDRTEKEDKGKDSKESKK

IC50 | SMILES
30 µM | N#Cc1cc(S(=O)(=O)Nc2ccc(F)cn2)ccc1Oc1ccc(CN2CCC2)c(F)c1
30 µM | Cc1nc(-c2ccccc2Oc2ccc(S(=O)(=O)Nc3ccc(F)cn3)cc2C#N)cs1
30 µM | COc1cc(Oc2ccc(S(=O)(=O)Nc3ccc(F)cn3)cc2C#N)ccc1-n1cnc(C)c1
0.0088 µM | N#Cc1cc(S(=O)(=O)Nc2ncns2)ccc1Oc1ccc(C(F)(F)F)cc1C1CCOCC1
0.0094 µM | N#Cc1ccc(Oc2cc(F)c(S(=O)(=O)Nc3ncns3)cc2Cl)c(-c2ccn[nH]2)c1
0.01 µM | N#Cc1cc(S(=O)(=O)Nc2ncc(Cl)s2)ccc1Oc1ccc(F)cc1-c1cccc(N)n1
14 µM | CCn1nc(C(F)(F)F)cc1-c1ccc(Oc2ccc(S(=O)(=O)Nc3ncccc3F)cc2C#N)cc1
25 µM | N#Cc1ccc(NS(=O)(=O)c2ccc(Oc3ccccc3-c3ccccc3)c(C#N)c2)nc1
30 µM | Cn1nccc1-c1cc(Cl)ccc1Oc1ccc(S(=O)(=O)Nc2cncnc2)cc1C#N
10 µM | O=S(=O)(Nc1nccs1)c1ccc(Oc2ccc(Oc3ccccc3)cc2)c(F)c1
10 µM | Cc1cc(Oc2ccc(S(=O)(=O)Nc3ncc(Cl)s3)cc2C#N)n(C2CCCCC2)n1
10 µM | N#Cc1cc(S(=O)(=O)Nc2nccs2)ccc1Oc1ccccc1-c1ccno1
10 µM | N#Cc1cc(S(=O)(=O)Nc2nccs2)ccc1Oc1ccccc1-c1nncn1-c1ccccc1
10 µM | N#Cc1cc(S(=O)(=O)Nc2nccs2)ccc1Oc1cc(C2CC2)nn1-c1ccccn1
10 µM | O=S(=O)(Nc1cscn1)c1ccc(Oc2cc(C(F)(F)F)nn2-c2ccccc2)c(F)c1
10 µM | CCn1nc(C(F)(F)F)cc1-c1ccc(Oc2ccc(S(=O)(=O)Nc3ccc(C#N)cn3)cc2C#N)cc1
10 µM | Cc1cncnc1NS(=O)(=O)c1ccc(Oc2ccccc2-c2ccccc2)c(C#N)c1
10 µM | Cc1cnc(NS(=O)(=O)c2ccc(Oc3ccccc3-c3ccccc3)c(C#N)c2)nc1
10 µM | N#Cc1cnc(NS(=O)(=O)c2ccc(Oc3ccccc3-c3ccccc3)c(C#N)c2)nc1
10 µM | CC(C)(C)n1ccc(-c2c(F)cccc2Oc2ccc(S(=O)(=O)Nc3ncns3)cc2C#N)n1
12.2 µM | N#Cc1cnc(NS(=O)(=O)c2ccc(Oc3ccccc3-c3ccccc3)c(C#N)c2)s1
0.007 µM | N#Cc1cc(S(=O)(=O)Nc2ncns2)ccc1Oc1cccc(Br)c1-c1cn[nH]c1
0.0084 µM | O=S(=O)(Nc1ncns1)c1cc(F)c(Oc2ccc(Cl)cc2C2CCNCC2)cc1F
0.0037 µM | O=S(=O)(Nc1cscn1)c1cc(F)c(Oc2ccc(Cl)cc2-c2ccnc(N3CCNCC3)c2)cc1F

IC50 | SMILES
12.5 µM | CNc1ncc(Oc2ccc(S(=O)(=O)Nc3ncns3)cc2C#N)c(-c2ccc(F)cc2)n1
10 µM | Cc1cnc(NS(=O)(=O)c2ccc(Oc3ccc(Cl)cc3-c3ccnn3C)c(C#N)c2)cn1
10 µM | Cn1nccc1NS(=O)(=O)c1ccc(Oc2ccc(Cl)cc2-c2ccnn2C)c(C#N)c1
10 µM | Cc1nonc1NS(=O)(=O)c1ccc(Oc2ccc(Cl)cc2-c2ccnn2C)c(C#N)c1
10 µM | COc1nccnc1NS(=O)(=O)c1ccc(Oc2ccc(Cl)cc2-c2ccnn2C)c(C#N)c1
10 µM | Cn1nccc1-c1cc(Cl)ccc1Oc1ccc(S(=O)(=O)Nc2cc[nH]n2)cc1C#N
10 µM | Cn1nccc1-c1cc(Cl)ccc1Oc1ccc(S(=O)(=O)Nc2cccnc2)cc1C#N
10 µM | N#Cc1cc(S(=O)(=O)Nc2cnoc2)ccc1Oc1ccccc1-c1ccccc1
10 µM | N#Cc1cc(S(=O)(=O)Nc2nccs2)ccc1Oc1ccc(-c2cnn(CC(F)(F)F)c2N)cc1
10 µM | CCc1nsc(NS(=O)(=O)c2ccc(Oc3ccccc3-c3ccccc3)c(C#N)c2)n1
10 µM | N#Cc1cc(S(=O)(=O)Nc2ncns2)ccc1Oc1cnc(N)nc1-c1ccc(Cl)cc1
10 µM | N#Cc1cc(S(=O)(=O)Nc2ncns2)ccc1Oc1nccnc1-c1ccccc1
10 µM | N#Cc1cc(S(=O)(=O)Nc2ncns2)ccc1Oc1nnccc1-c1ccccc1
10 µM | N#Cc1cc(S(=O)(=O)Nc2ncns2)ccc1Oc1ccccc1Oc1ccccc1C(N)=O
10 µM | N#Cc1cc(S(=O)(=O)Nc2ncco2)ccc1Oc1ccccc1-c1ccccc1
10 µM | CC(C)c1nsc(NS(=O)(=O)c2ccc(Oc3ccccc3-c3ccccc3)c(C#N)c2)n1
10 µM | N#Cc1cc(S(=O)(=O)Nc2ccccc2)ccc1Oc1ccccc1-c1ccccc1
10 µM | N#Cc1cc(S(=O)(=O)Nc2cc(C(F)(F)F)ncn2)ccc1Oc1ccccc1-c1ccccc1
4.6 µM | N#Cc1cc(S(=O)(=O)Nc2ncsn2)ccc1Oc1ccccc1-c1ccccc1
5.68 µM | N#Cc1cc(S(=O)(=O)Nc2cnsn2)ccc1Oc1ccccc1-c1ccccc1
6.44 µM | Cc1ccc(Oc2ccc(S(=O)(=O)Nc3nccs3)cc2F)c(-c2ccn(C)n2)c1
0.0049 µM | NCc1cc(-c2cc(Cl)ccc2Oc2cc(F)c(S(=O)(=O)Nc3ncns3)cc2Cl)ccn1
0.0024 µM | Nc1cc(-c2cc(OC(F)(F)F)ccc2Oc2cc(F)c(S(=O)(=O)Nc3ncns3)cc2F)ccn1
3.3 µM | N#Cc1cc(S(=O)(=O)Nc2nccs2)ccc1Oc1ccc(-c2ccc(C(F)(F)F)cn2)cc1
